Measured values: article PMC6432629 (The Prostate, 2016)
Numbered stars: 1 amine (or outer) side, 2 acyl side, 3 side chain; on linkers, the order of the positions; unused ones are H or OH. Square brackets hold non-standard residues; d marks the D form. Peptide text beside a SMILES is read from it. * marks the point of attachment. Emetine(N2') = CC[C@H]1CN2CCc3cc(OC)c(OC)cc3[C@@H]2C[C@@H]1C[C@@H]1c2cc(OC)c(OC)cc2CCN1*; PABC = O=C(OCc1ccc(N[*:1])cc1)[*:2]

Tests used:
[1] = system: FAP/DPPIV activity in 10% FBS; test: Inhibition of hydrolysis of 10 to emetine in 10% FBS by FAP inhibitor; assay type: biochemical, bovine; conditions: Ac-Gly-boroPro 200 μM added to 10% FBS containing media
[2] = biological target: T1, FAP (Homo sapiens, UniProt Q12884); test: FAP-mediated hydrolysis of prodrugs ex vivo; assay type: in vitro ADME; conditions: 37°C; for release of emetine on incubation with FAP (in words): FAP in FAP buffer / FAP containing media, 24 hr, LC-MS
T1 sequence (Q12884 27-760 limits assumed): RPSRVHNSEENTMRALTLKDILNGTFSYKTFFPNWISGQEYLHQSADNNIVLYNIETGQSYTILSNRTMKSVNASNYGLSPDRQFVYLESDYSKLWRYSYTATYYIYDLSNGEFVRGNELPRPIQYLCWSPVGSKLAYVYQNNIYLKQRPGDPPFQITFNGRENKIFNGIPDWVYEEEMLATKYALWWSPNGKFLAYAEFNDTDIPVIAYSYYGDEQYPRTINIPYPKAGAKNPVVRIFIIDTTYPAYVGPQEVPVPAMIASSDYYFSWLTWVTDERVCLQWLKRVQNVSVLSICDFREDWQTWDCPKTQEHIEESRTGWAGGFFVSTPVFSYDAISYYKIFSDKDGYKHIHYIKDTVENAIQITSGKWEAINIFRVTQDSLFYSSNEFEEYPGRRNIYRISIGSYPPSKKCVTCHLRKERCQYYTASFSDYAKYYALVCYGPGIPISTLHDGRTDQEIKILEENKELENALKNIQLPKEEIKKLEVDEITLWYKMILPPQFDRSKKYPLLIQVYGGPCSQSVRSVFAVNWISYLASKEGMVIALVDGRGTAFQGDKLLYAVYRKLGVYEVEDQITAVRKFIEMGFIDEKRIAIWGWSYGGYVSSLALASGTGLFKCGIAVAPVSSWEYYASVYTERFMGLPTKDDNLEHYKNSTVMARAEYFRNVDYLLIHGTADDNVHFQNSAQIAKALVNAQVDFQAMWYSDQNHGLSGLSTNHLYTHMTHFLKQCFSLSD

[3] = system: PC3; test: MTT cell proliferation; conditions: for cytotoxicity to PC3 (in words): media with 10% FBS, exposure time not given; for IC50 fold higher than that of emetine, PC3: in FAP-containing FBS
[4] = system: LNCaP; test: MTT cell proliferation; conditions: for cytotoxicity to LNCaP (in words): media with 10% FBS, exposure time not given
[5] = biological target: DPPIV (human recombinant CD26) (Homo sapiens, UniProt P27487); test: DPPIV-mediated hydrolysis of prodrugs ex vivo; assay type: in vitro ADME; conditions: very high concentration, incubation up to 48 hr at 37°C, LC-MS
Chain of DPPIV (human recombinant CD26) (P27487 whole entry): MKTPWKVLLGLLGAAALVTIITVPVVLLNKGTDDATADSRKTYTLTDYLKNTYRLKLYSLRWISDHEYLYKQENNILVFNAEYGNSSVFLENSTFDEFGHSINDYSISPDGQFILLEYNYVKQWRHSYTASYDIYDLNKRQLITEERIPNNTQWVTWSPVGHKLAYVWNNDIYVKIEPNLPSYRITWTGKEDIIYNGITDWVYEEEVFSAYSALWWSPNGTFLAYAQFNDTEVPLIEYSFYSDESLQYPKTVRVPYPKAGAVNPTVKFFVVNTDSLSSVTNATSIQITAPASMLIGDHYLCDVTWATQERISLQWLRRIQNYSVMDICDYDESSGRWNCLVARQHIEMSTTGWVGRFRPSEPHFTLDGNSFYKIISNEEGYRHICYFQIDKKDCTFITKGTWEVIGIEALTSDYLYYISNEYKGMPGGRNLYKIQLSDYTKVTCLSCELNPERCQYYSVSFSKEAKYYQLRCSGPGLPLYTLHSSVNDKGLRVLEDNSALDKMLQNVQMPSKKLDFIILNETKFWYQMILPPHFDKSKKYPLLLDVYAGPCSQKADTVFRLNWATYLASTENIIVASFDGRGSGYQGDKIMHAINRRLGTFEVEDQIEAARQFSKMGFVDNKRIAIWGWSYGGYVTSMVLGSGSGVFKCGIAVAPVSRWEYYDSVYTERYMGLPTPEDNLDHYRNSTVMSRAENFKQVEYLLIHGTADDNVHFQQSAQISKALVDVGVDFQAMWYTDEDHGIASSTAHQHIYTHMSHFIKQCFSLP

[6] = Hydrolysis of prodrugs in media with 10% FBS; assay type: in vitro ADME, bovine
[7] = system: MCF-7; test: MTT cell proliferation
[8] = system: FAP and DPPIV; test: mixture of purified FAP and DPPIV; conditions: 37°C, up to 24 hr
[9] = system: FAP; test: FAP buffer; conditions: 37°C, up to 24 hr
[10] = system: DPPIV; test: FAP buffer; conditions: Human, 37°C, up to 48 hr

With `CC(=O)NCC(=O)N1CCC[C@@H]1B(O)O` [AcGBP, Ac-Gly-boroPro] the “inhibition of release of emetine from 10 in 10% FBS, 2 hr” value ([1]; 2 hr) was “completely inhibited” and the “decrease of release of emetine from 10 in 10% FBS, 24 hr” value ([1]; 24 hr) was “approximately 45%”.
For `CC[C@H]1CN2CCc3cc(OC)c(OC)cc3[C@@H]2C[C@@H]1C[C@@H]1c2cc(OC)c(OC)cc2CCN1C(=O)[C@@H]1CCCN1C(=O)CNC(=O)[C@H](C)NC(=O)[C@@H]1CCCN1C(=O)CNC(=O)[C@H](CO)NC(=O)[C@H](C)NC(C)=O` [Compound 1] (Ac-ASGPAGP-{Emetine(N2')}), the “release of emetine on incubation with FAP (in words)” value (“release of emetine on incubation” for short) [2] was “did not release detectable amounts of emetine”, the “cytotoxicity to PC3 (in words)” value [3] was “not cytotoxic” and the “cytotoxicity to LNCaP (in words)” value [4] was “not cytotoxic”.
In the case of `CC[C@H]1CN2CCc3cc(OC)c(OC)cc3[C@@H]2C[C@@H]1C[C@@H]1c2cc(OC)c(OC)cc2CCN1C(=O)OCc1ccc(NC(=O)[C@@H]2CCCN2C(=O)CNC(=O)[C@H](C)NC(=O)[C@@H]2CCCN2C(=O)CNC(=O)[C@H](CO)NC(=O)[C@H](C)NC(C)=O)cc1` [Compound 2] (Ac-ASGPAGP[PABC]-{Emetine(N2')}), the “release of emetine on incubation” value [2] is reported as “not cleaved by FAP containing media to release emetine”, the “cytotoxicity to PC3 (in words)” value [3] is reported as “not cytotoxic” and the “cytotoxicity to LNCaP (in words)” value [4] is reported as “not cytotoxic”.
In the case of `CC[C@H]1CN2CCc3cc(OC)c(OC)cc3[C@@H]2C[C@@H]1C[C@@H]1c2cc(OC)c(OC)cc2CCN1C(=O)[C@H](C)NC(=O)[C@@H]1CCCN1C(=O)CNC(=O)[C@H](C)NC(=O)[C@@H]1CCCN1C(=O)CNC(=O)[C@H](CO)NC(=O)[C@H](C)NC(C)=O` [Compound 3] (Ac-ASGPAGPA-{Emetine(N2')}), the “% cleavage to Ala-Gly-Pro-Ala-Emetine” value ([2]; 24 hr incubation with FAP) is reported as 100%, the “release of emetine on incubation” value [2] is reported as “no further conversion to free emetine” and the “IC50 fold higher than that of emetine, PC3” value [3] is reported as “more than 150 fold”.
For `CC[C@H]1CN2CCc3cc(OC)c(OC)cc3[C@@H]2C[C@@H]1C[C@@H]1c2cc(OC)c(OC)cc2CCN1C(=O)OCc1ccc(NC(=O)[C@H](C)NC(=O)[C@@H]2CCCN2C(=O)CNC(=O)[C@H](C)NC(=O)[C@@H]2CCCN2C(=O)CNC(=O)[C@H](CO)NC(=O)[C@H](C)NC(C)=O)cc1` [Compound 4] (Ac-ASGPAGPA[PABC]-{Emetine(N2')}), the “% Ala-Gly-Pro-Ala-PABC-Emetine (minor cleavage product)” value ([2]; 24 hr incubation with FAP) was 15%, the “% Ala-PABC-Emetine (major cleavage product)” value ([2]; 24 hr incubation with FAP) was 85% and the “release of emetine on incubation” value [2] was “no further conversion to free emetine”. For the same compound, the “IC50 fold higher than that of emetine, PC3” value [3] was “more than 150 fold”.
In the case of `CC[C@H]1CN2CCc3cc(OC)c(OC)cc3[C@@H]2C[C@@H]1C[C@@H]1c2cc(OC)c(OC)cc2CCN1C(=O)[C@@H]1CCCN1C(=O)[C@H](C)N` [Compound 9], the “conversion to emetine by purified DPPIV (in words)” value [5] is reported as “not converted to emetine”, the “% emetine released, 10% FBS” value ([6]; RPMI media with 10% FBS, 500 μM compound, 1% DMSO, 37°C, 24 hr, HPLC and MS) is reported as 0% and the “conversion to emetine in 10% FBS (in words)” value ([6]; very high concentration, incubation up to 48 hr at 37°C, LC-MS) is reported as “not converted to emetine”. For the same compound, the “cytotoxicity to PC3 (in words)” value [3] was “inactive compared to emetine”, the IC50 ([3]; read-out: IC50 (nM) PC3, Table II, 3-day exposure, media containing 10% FBS, MTT) was greater than 10000 nM and the “cytotoxicity to LNCaP (in words)” value [4] was “inactive compared to emetine”. For the same compound, the IC50 ([4]; read-out: IC50 (nM) LNCaP, Table II, 3-day exposure, media containing 10% FBS, MTT) was 9520 nM, the “cytotoxicity to MCF-7 (in words)” value ([7]; media with 10% FBS, exposure time not given) was “inactive compared to emetine” and the IC50 ([7]; read-out: IC50 (nM) MCF-7, Table II, 3-day exposure, media containing 10% FBS, MTT) was greater than 10000 nM.
In the case of “Ac-Ala-Ser-Gly-Pro-Ala-Gly-Pro-Ala-Pro-PABC-Emetine”, the fragment found [8] is reported as “emetine, 2 hr” and the fragment found [9] is reported as “emetine”.
For Ala-Pro-PABC-Emetine, the fragment found [9] was “emetine” and the fragment found [10] was “emetine, 2 hr”.
